Measured values: patent publication US20250101063A1, “POLYPEPTIDE COMPOUND AND USE THEREOF IN TREATMENT OF ENTERITIS” (Sichuan Gooddoctor Panxi Pharmaceutical Co., Ltd., priority 2022, published 2025)
Where no end group is shown, it is not given here. [ ]: non-standard residue; d: D form. pGlu = O=C1CC[C@@H](C(=O)O)N1

Tested on: zebrafish model of intestinal mucosal injury
Experiment: Efficacy in relieving colitis: intestinal lumen area in TNBS-treated zebrafish
Format: in vivo
Parameters: key to Activity in relieving intestinal lumen dilatation: * p < 0.05; ** p < 0.01; *** p < 0.001; “−“ indicates absence of activity; “+” indicates some relief of intestinal lumen dilatation; “#” indicates that all the zebrafishes died in the experiment; “&” indicates that 13 zebrafishes died in the experiment
Details: for Activity in relieving intestinal lumen dilatation: 1000 μg/mL, significance vs model control group of the same batch; for Intestinal lumen area (pixels, mean ± SE): 2 days after TNBS, n = 10
Description: Experimental animals: Wild-type AB strain zebrafishes, bred by natural pair mating. Zebrafishes aged 3 days post fertilization (3 dpf). Zebrafishes were kept in fish farming water at 28° C. (water quality: 200 mg of instant sea salt in each 1L of reverse osmosis water, with the conductivity of 450-550 μS/cm; pH of 6.5-8.5; and hardness of 50-100 mg/L CaCO3), the experimental animal use license number is: SYXK (Zhe) 2012-0171, and the breeding management met the requirements of the international AAALAC certification (certification number: 001458).
(1) Grouping: Polypeptide group: prepared into a stock solution of 20.0 mg/mL with ultrapure water and stored at −20° C.
Positive control group: prednisone, as white powder, with batch number C10016501, Shanghai Macklin Biochemical Technology Co., Ltd., stored at 4° C.; prepared into a 15.0 mg/mL stock solution with DMSO, and stored in aliquots at −20° C.
Normal control group and model control group.
(2) Experimental method: 3 dpf wild-type AB strain zebrafishes were randomly selected and placed in a 6-well plate, with 30 zebrafishes in each well (experimental group). Except for the normal control group, all other experimental groups were given TNBS in water to establish the zebrafish model of intestinal mucosal injury. After 2 days of treatment at 28° C., TNBS was removed, and polypeptide compound in water (at concentrations shown in Table 4) was given respectively, and for the positive control, prednisone was 15.0 μg/mL. A normal control group (healthy group) and a model control group (intestinal mucosal injury group) were set up at the same time. The capacity of each well (experimental group) was 3 mL. After 2 days of treatment at 28° C., 10 zebrafishes were randomly selected from each experimental group and photographed under a dissecting microscope. NIS-Elements D 3.20 advanced image processing software was used to analyze and collect data, and the intestinal lumen area of the zebrafish was analyzed. The statistical analysis results of this indicator were used to evaluate the efficacy of the samples in relieving colitis. The statistics results were expressed as mean±SE. SPSS26.0 software was used for statistical analysis, and p<0.05 indicates statistically significant difference.
The concentration gradient of the test substances set in this experimental system was 250 μg/mL, 500 μg/mL, and 1000 μg/mL. […] When the concentration of the test substance was further increased for intervention, the death phenomenon of zebrafishes was found in the group; therefore, in the subsequent rounds of activity evaluation, each test polypeptide compound was uniformly administered at 1000 μg/mL for intervention.

KEPVPQAKPAKVAAQ [Compound 27]
Activity in relieving intestinal lumen dilatation: +

E[dP]VPQAK [Compound 79]
Activity in relieving intestinal lumen dilatation: +

KEGVGQAKGRKVAAQ [Compound 35]
Activity in relieving intestinal lumen dilatation: −

KEPVPQAKPRKVAAE [Compound 103]
Activity in relieving intestinal lumen dilatation: * (* p < 0.05)

KEPVPQ [Compound 87]
Activity in relieving intestinal lumen dilatation: +

Lys-Glu-Pro-Val-Pro (KEPVP; printed: Lys-Glu-Pro-Val-Pro) [Compound 85]
Activity in relieving intestinal lumen dilatation: * (* p < 0.05)

EPVPQAKPRK [Compound 38]
Activity in relieving intestinal lumen dilatation: * (* p < 0.05)

KEPVPQ[dA]KPRKVAAQ [Compound 67]
Activity in relieving intestinal lumen dilatation: * (* p < 0.05)

EPAPQAK [Compound 52]
Activity in relieving intestinal lumen dilatation: +

KEPVPQAKPRKVA[dA]Q [Compound 74]
Activity in relieving intestinal lumen dilatation: +

KEP[dV]PQAKPRKVAAQ [Compound 64]
Activity in relieving intestinal lumen dilatation: +

SSEDIKEKEPVPQAKPRKVAAQ [Compound 97]
Activity in relieving intestinal lumen dilatation: *** (*** p < 0.001)

Lys-Glu-Pro-Val (KEPV; printed: Lys-Glu-Pro-Val) [Compound 7]
Activity in relieving intestinal lumen dilatation: +

SSEDIKEPVPQ [Compound 99]
Activity in relieving intestinal lumen dilatation: * (* p < 0.05)

KEGVGQAKPRKVAAQ [Compound 37]
Activity in relieving intestinal lumen dilatation: +

PVPQAKPR [Compound 59]
Activity in relieving intestinal lumen dilatation: +

EPVPAAK [Compound 47]
Activity in relieving intestinal lumen dilatation: +

RKDVYKEPVPQAK [Compound 92]
Activity in relieving intestinal lumen dilatation: ** (** p < 0.01)

EPVPQA[dK] [Compound 84]
Activity in relieving intestinal lumen dilatation: +

Ala-Lys-Pro-Arg (AKPR; printed: Ala-Lys-Pro-Arg) [Compound 11]
Activity in relieving intestinal lumen dilatation: +

EPV[dP]QAK [Compound 81]
Activity in relieving intestinal lumen dilatation: +

KEPVPQAK[dP]RKVAAQ [Compound 69]
Activity in relieving intestinal lumen dilatation: +

KEPVPQAKPRK[dV]AAQ [Compound 72]
Activity in relieving intestinal lumen dilatation: ** (** p < 0.01)

EPVGQAK [Compound 77]
Activity in relieving intestinal lumen dilatation: −

KEPIPQAKPRKVAAQ [Compound 106]
Activity in relieving intestinal lumen dilatation: ** (** p < 0.01)

EPVPQ[dA]K [Compound 83]
Activity in relieving intestinal lumen dilatation: * (* p < 0.05)

KQPVPQAKPRKVAAQ [Compound 105]
Activity in relieving intestinal lumen dilatation: ** (** p < 0.01)

KEPVPQAKPRAVAAQ [Compound 28]
Activity in relieving intestinal lumen dilatation: +

KEPVPQAKPRKVAA[dQ] [Compound 75]
Activity in relieving intestinal lumen dilatation: * (* p < 0.05)

KEPVAQAKPRKVAAQ [Compound 22]
Activity in relieving intestinal lumen dilatation: +

GPETAFLREPVPQAK [Compound 96]
Activity in relieving intestinal lumen dilatation: *** (*** p < 0.001)

KEPVPAAKPRKVAAQ [Compound 23]
Activity in relieving intestinal lumen dilatation: +

KEPVPQAKP[dR]KVAAQ [Compound 70]
Activity in relieving intestinal lumen dilatation: * (* p < 0.05)

KEPV[dP]QAKPRKVAAQ [Compound 65]
Activity in relieving intestinal lumen dilatation: * (* p < 0.05)

Pro-Val-Pro-Ile-Ala (PVPIA; printed: Pro-Val-Pro-Ile-Ala) [Compound 41]
Activity in relieving intestinal lumen dilatation: +

Glu-Pro-Val-Pro (EPVP; printed: Glu-Pro-Val-Pro) [Compound 9]
Activity in relieving intestinal lumen dilatation: ** (** p < 0.01)

Glu-Pro-Val-Pro-Gln (EPVPQ; printed: Glu-Pro-Val-Pro-Gln) [Compound 86]
Activity in relieving intestinal lumen dilatation: * (* p < 0.05)

PAYKEPVPQAKPRKVAAQ [Compound 90]
Activity in relieving intestinal lumen dilatation: * (* p < 0.05)

KEGVPQAKGRKVAAQ [Compound 36]
Activity in relieving intestinal lumen dilatation: +

RKDVYEPVPQAK [Compound 93]
Activity in relieving intestinal lumen dilatation: * (* p < 0.05)

KEPAPQAKPRKVAAQ [Compound 25]
Activity in relieving intestinal lumen dilatation: ** (** p < 0.01)

PVPQAKP [Compound 60]
Activity in relieving intestinal lumen dilatation: −

Pro-Val-Pro-Ala (PVPA; printed: Pro-Val-Pro-Ala) [Compound 42]
Activity in relieving intestinal lumen dilatation: +

EPVPEAK [Compound 55]
Activity in relieving intestinal lumen dilatation: * (* p < 0.05)

PVPQAK [Compound 44]
Activity in relieving intestinal lumen dilatation: −

Lys-Val-Ala-Ala (KVAA; printed: Lys-Val-Ala-Ala) [Compound 16]
Activity in relieving intestinal lumen dilatation: +

NPVPQAK [Compound 50]
Activity in relieving intestinal lumen dilatation: * (* p < 0.05)

EGVPQAK [Compound 76]
Activity in relieving intestinal lumen dilatation: +

KEPVPQAKPRKVAAA [Compound 30]
Activity in relieving intestinal lumen dilatation: +

EP[dV]PQAK [Compound 80]
Activity in relieving intestinal lumen dilatation: +

EPVPQAKPR [Compound 57]
Activity in relieving intestinal lumen dilatation: ** (** p < 0.01)

KEPVPQAK [Compound 4]
Intestinal lumen area (pixels, mean ± SE) (250 μg/mL in water): 48915 ± 2720 pixels | Intestinal lumen area (pixels, mean ± SE) (500 μg/mL in water): 40432 ± 3736 pixels | Intestinal lumen area (pixels, mean ± SE) (1000 μg/mL in water): 33664 ± 3758 pixels | Activity in relieving intestinal lumen dilatation: * (* p < 0.05) | Intestinal lumen area compared with the model control group (in words) (250, 500, 1000 μg/mL, Table 4): significant statistical differences compared with the model control group

RKDVYPVPQ [Compound 94]
Activity in relieving intestinal lumen dilatation: *** (*** p < 0.001)

pyro-Glu-Leu-Lys-Glu-Pro-Val-Pro-Gln-Ala-Lys-Pro-Arg-Lys-Val-Ala-Ala-Gln ([pGlu]LKEPVPQAKPRKVAAQ; also: acetate salt) [Compound 89]
Activity in relieving intestinal lumen dilatation: ** (** p < 0.01)

KAPVPQAKPRKVAAQ [Compound 20]
Activity in relieving intestinal lumen dilatation: &

KEPVPQA[dK]PRKVAAQ [Compound 68]
Activity in relieving intestinal lumen dilatation: ** (** p < 0.01)

KEPVGQAKPRKVAAQ [Compound 32]
Activity in relieving intestinal lumen dilatation: +

EPVPQAA [Compound 48]
Activity in relieving intestinal lumen dilatation: ** (** p < 0.01)

Pro-Gln-Ala-Lys (PQAK; printed: Pro-Gln-Ala-Lys) [Compound 14]
Activity in relieving intestinal lumen dilatation: +

SSEDIKEEPVPQAK [Compound 98]
Activity in relieving intestinal lumen dilatation: ** (** p < 0.01)

APVPQAK [Compound 46]
Activity in relieving intestinal lumen dilatation: +

Pro-Val-Pro-Gln-Ala (PVPQA; printed: Pro-Val-Pro-Gln-Ala) [Compound 39]
Activity in relieving intestinal lumen dilatation: +

Val-Ala-Ala-Gln (VAAQ; printed: Val-Ala-Ala-Gln) [Compound 8]
Activity in relieving intestinal lumen dilatation: +

DPVPQAK [Compound 49]
Activity in relieving intestinal lumen dilatation: * (* p < 0.05)

KEAVPQAKPRKVAAQ [Compound 21]
Activity in relieving intestinal lumen dilatation: +

VPYKEPVPQAKPRKVAAQ [Compound 88]
Activity in relieving intestinal lumen dilatation: * (* p < 0.05)

KEPVPQAKPR[dK]VAAQ [Compound 71]
Activity in relieving intestinal lumen dilatation: +

AEPVPQAKPRKVAAQ [Compound 19]
Activity in relieving intestinal lumen dilatation: +

EPVAQAK [Compound 54]
Activity in relieving intestinal lumen dilatation: *** (*** p < 0.001)

KEPVP[dQ]AKPRKVAAQ [Compound 66]
Activity in relieving intestinal lumen dilatation: * (* p < 0.05)

KEGVPQAKPRKVAAQ [Compound 31]
Activity in relieving intestinal lumen dilatation: * (* p < 0.05)

KEPVPQAKPRKAAAQ [Compound 29]
Activity in relieving intestinal lumen dilatation: * (* p < 0.05)

RKDVYKEPVPQAKPRKVAAQ [Compound 91]
Activity in relieving intestinal lumen dilatation: +

Gln-Ala-Lys-Pro (QAKP; printed: Gln-Ala-Lys-Pro) [Compound 17]
Activity in relieving intestinal lumen dilatation: +

GPETAFLRKEPVPQAKPRKVAAQ [Compound 95]
Activity in relieving intestinal lumen dilatation: ** (** p < 0.01)

KE[dP]VPQAKPRKVAAQ [Compound 63]
Activity in relieving intestinal lumen dilatation: *** (*** p < 0.001)

Lys-Pro-Arg-Lys (KPRK; printed: Lys-Pro-Arg-Lys) [Compound 10]
Activity in relieving intestinal lumen dilatation: ** (** p < 0.01)
